Experimental data as given in patent US20050187240A1, “Aaptamine and isoaaptamine and structural modifications thereof” (The Arizona Board of Regents, Acting for and on behalf of …, priority 2004, published 2005).
Where a name gives a salt, the structure may show the parent alone. Read-outs that look alike come from different tables or passages of the source. One block for each molecule: values may come before it.

How the values were obtained:
Neisseria gonorrhoeae = test: Broth microdilution susceptibility assay, Neisseria gonorrhoeae; assay type: cell-based
breast MCF-7 = test: Cancer cell growth inhibition, breast MCF-7; assay type: cell-based, human; conditions: Homo sapiens, MCF7, breast MCF-7
Experimental: (§1) Biology The cancer cell growth inhibitory properties were examined using the murine P388 lymphocytic leukemia cell line and a selection of human cancer cell lines.
(§2) All of the synthetic products were evaluated against a minipanel of human cancer cell lines, the murine P388 lymphocytic leukemia cell line and a selection of microorganisms.

colon KM 20L2 = test: Cancer cell growth inhibition, colon KM 20L2; assay type: cell-based, human; conditions: Homo sapiens, colon KM 20L2
Text: (§3) Evaluation of demethyloxyaaptamine (3), aaptamine (1), isoaaptamine (2) and hystatin 1 (11) against the Arizona State University Cancer Research Institute's human tumor cell line panel (Table 1) and the NCI 60-cell line human tumor screen were undertaken. (Boyd, M. R., Cancer: Principles and Practices of Oncology Updates; DeVita, et al., Eds; Lippincott: Philadelphia, 1989, Vol. 10, No. 3, pp. 1-12; Boyd, et al., Drug Development Research 1995, 34, 91-109; Boyd, M. R., et al. Cytotoxic Anticancer Drugs: Models and Concepts for Drug Discovery and Development; Valeriote, A., et al., Eds, Kluwer Academic Publishers: Amsterdam, 1992, pp. 11-34.)
as §1, §2

[1] = system: Stenotrophomonas maltophilia; test: Broth microdilution susceptibility assay, Stenotrophomonas maltophilia; assay type: cell-based
CNS SF-268 = test: Cancer cell growth inhibition, CNS SF-268; assay type: cell-based, human; conditions: Homo sapiens, CNS SF-268
Experimental: as §1, §2

[2] = system: murine P388 lymphocytic leukemia cell line; test: Cancer cell growth inhibition, murine P388 lymphocytic leukemia cell line; assay type: cell-based; conditions: for IC50: Mus musculus; for P388 ED50: murine P388
Text: as §3, §1, §2

lung NCI-H460 = test: Cancer cell growth inhibition, lung NCI-H460; assay type: cell-based, human; conditions: Homo sapiens, lung NCI-H460
Text: as §3, §1, §2

Micrococcus luteus = test: Broth microdilution susceptibility assay, Micrococcus luteus; assay type: cell-based
pancreas BXPC-3 = test: Cancer cell growth inhibition, pancreas BXPC-3; assay type: cell-based, human; conditions: Homo sapiens, pancreas BXPC-3
Experimental: as §1, §2

Escherichia coli = test: Broth microdilution susceptibility assay, Escherichia coli; assay type: cell-based
Staphylococcus aureus = test: Broth microdilution susceptibility assay, Staphylococcus aureus; assay type: cell-based
PKC alpha = PKC alpha (Homo sapiens, UniProt P17252); test: Inhibition of PKC catalytic activity (peptide substrate phosphorylation); assay type: biochemical; conditions: 30 μM compound; 1 μM phorbol 12-myristate 13-acetate, 100 μg/ml phospholipid; mean±SEM, three experiments; read-out: percent inhibition of PKC catalytic activity
Text: We further evaluated the ability of the derivatives to inhibit PKC catalytic activity. […] Inhibition by 10c was 19.5±7.6% and inhibition by 4, 5, and 9a, b, c was 6% or less (all values are mean±SEM, three experiments). […] In both cases, the inhibition curves were steeper than predicted for a competitive inhibitor, consistent with a complicated mechanism of action (Hill coefficients for 10a and 10b of 1.5±0.1 and 2.0±0.5, respectively).

prostrate DU-145 = test: Cancer cell growth inhibition, prostate DU-145; assay type: cell-based, human; conditions: Homo sapiens
Experimental: as §1, §2

Candida albicans = test: Broth microdilution susceptibility assay, Candida albicans; assay type: cell-based
Cryptococcus neoformans = test: Broth microdilution susceptibility assay, Cryptococcus neoformans; assay type: cell-based
Streptococcus pneumoniae = test: Broth microdilution susceptibility assay, Streptococcus pneumoniae; assay type: cell-based
Enterococcus faecalis = test: Broth microdilution susceptibility assay, Enterococcus faecalis; assay type: cell-based; conditions: Table 4, read-out: Range of minimum inhibitory concentration
Enterobacter cloacae = test: Broth microdilution susceptibility assay, Enterobacter cloacae; assay type: cell-based; conditions: Table 4, read-out: Range of minimum inhibitory concentration
[3] = Table 5, read-out: Cancer Cell Line Results ED50
[4] = Table 5, leukemia P388, read-out: Cancer Cell Line Results ED50
[5] = DU-145, Table 5, prostate DRU-145, read-out: Cancer Cell Line Results ED50
[6] = Table 4, read-out: Range of minimum inhibitory concentration
[7] = Table 3, read-out: Cancer cell growth inhibitory ED50

Structure (SMILES): Oc1cc2ccnc3c2c(c1O)NC=C3 (as salt: hydrobromid) [Compound 15, 8,9-Dihydroxy-1H-Benzo[de][1,6]naphthyridine hydrobromide]
melting point: 245 to 248 °C (dec.)

melting point: 198 to 200 °C (dec.)
IC50 (breast MCF-7; [3]): > 10 mg/L
IC50 (colon KM 20L2; [3]): 3.4 mg/L
IC50 (CNS SF-268; [3]): > 10 mg/L
IC50 [2, 4]: 4.64 mg/L
IC50 (lung NCI-H460; [3]): > 10 mg/L
IC50 (pancreas BXPC-3; [3]): > 10 mg/L
inhibition at 30 µM (PKC alpha): ≤ 6%
IC50 (prostrate DU-145; [5]): > 10 mg/L
Structure (SMILES): COc1cc(CN2C=Cc3cc(OC)c(OC)c4nccc2c34)cc(OC)c1OC.Cl [Compound 9c, 8,9-Dimethoxy-4-(3,4,5-trimethoxybenzyl)-4H-benzo[de][1,6]naphthyridine hydrochloride]
Range of minimum inhibitory concentration (Neisseria gonorrhoeae; Table 6): 64 mg/L
Range of minimum inhibitory concentration ([1]; Table 6): * (no inhibition at 64 μg/mL)
Range of minimum inhibitory concentration (Micrococcus luteus; Table 6): * (no inhibition at 64 μg/mL)
Range of minimum inhibitory concentration (Escherichia coli; Table 6): * (no inhibition at 64 μg/mL)
Range of minimum inhibitory concentration (Staphylococcus aureus; Table 6): * (no inhibition at 64 μg/mL)
Range of minimum inhibitory concentration (Candida albicans; Table 6): * (no inhibition at 64 μg/mL)
Range of minimum inhibitory concentration (Cryptococcus neoformans; Table 6): * (no inhibition at 64 μg/mL)
Range of minimum inhibitory concentration (Streptococcus pneumoniae; Table 6): * (no inhibition at 64 μg/mL)

Structure (SMILES): COC1=Cc2ccnc3ccnc(c23)C1(OC)OC [Compound 12]
P388 ED50 [2]: 59 mg/L

MIC (Enterococcus faecalis): > 64 mg/L
MIC (Neisseria gonorrhoeae; [6]): > 64 mg/L
IC50 (breast MCF-7; [7]): 4.9 mg/L
IC50 (breast MCF-7; [3]): 4.9 mg/L
IC50 (colon KM 20L2; [7]): 6.1 mg/L
IC50 (colon KM 20L2; [3]): 6.1 mg/L
MIC ([1]; Table 4, Stenotrophomonas maltophil, read-out: Range of minimum inhibitory concentration): > 64 mg/L
IC50 (CNS SF-268; [7]): 0.69 mg/L
IC50 (CNS SF-268; [3]): 0.69 mg/L
IC50 ([2]; P388, Table 3, leukemia P-388, read-out: Cancer cell growth inhibitory ED50): 3.9 mg/L
IC50 [2, 4]: 3.89 mg/L
IC50 (lung NCI-H460; [7]): > 10 mg/L
IC50 (lung NCI-H460; [3]): > 10 mg/L
MIC (Micrococcus luteus; [6]): 16 to 32 mg/L
IC50 (pancreas BXPC-3; [7]): 7.1 mg/L
IC50 (pancreas BXPC-3; [3]): 7.1 mg/L
MIC (Escherichia coli; [6]): > 64 mg/L
MIC (Staphylococcus aureus; [6]): > 64 mg/L
inhibition at 30 µM (PKC alpha): ≤ 6%
IC50 (prostrate DU-145; [5]): 3.5 mg/L
IC50 (prostrate DU-145; Table 3, prostrate DU-145, read-out: Cancer cell growth inhibitory ED50): 3.5 mg/L
MIC (Enterobacter cloacae): > 64 mg/L
MIC (Candida albicans; [6]): > 64 mg/L
MIC (Cryptococcus neoformans; [6]): > 64 mg/L
MIC (Streptococcus pneumoniae; [6]): > 64 mg/L
Structure (SMILES): COc1cc2c3c(cc[n+](C)c3c1OC)N(C)C=C2.[I-] [Compound 5, 1,4-Dimethyl-8,9-dimethoxy-4H-benzo-[de][1,6]naphthyridin-1-ium iodide]
P388 ED50 [2]: 3.9 mg/L
